From patent publication US11033597B2, “Dermatological kit comprising compositions based on hibiscus flower and buriti oil” (MEDICAL BRANDS RESEARCH B.V., priority 2014, dated 2021)
Entries after “also recorded” stand apart in the source; their conditions may differ.

System: human skin explants
Test: Exfoliating action of plant extracts on human skin explants ex vivo (morphology of the stratum corneum)
Assay type: cell-based
Conditions: for Exfoliating activity, Result: day 4, compared to control group TJ
Protocol: Particular attention is paid to the morphology of the stratum corneum.
Activity is assessed by examination of the morphology.
The explants were stored in BEM (BIO-EC's Explants Medium) at 37° C. in a humid atmosphere enriched with 5% C02.
The test product is applied topically at a rate of 2 μl per explant, using a spatula to spread, on days 0, 2 and 3.
On day 0, the 3 explants of batch T0 were removed and cut into 2. One portion was fixated in a buffered formalin solution and the second part was frozen at −80° C. At Day 4, the 3 explants of each batch were taken and treated in the same manner.
After a fixation of 24 hours in buffered formalin, the samples were dried and soaked in paraffin using an automatic dehydration system, Leica TP 1020. They were embedded in a resin using a coating system Leica EG 1160.
Slices of 5 microns have been produced using a microtome type Minot Leica RM 2125 and mounted on microscope slides type histological SuperFrost®.
Microscopic observations were performed by optical microscopy, using a Leica Orthoplan microscope and an Olympus BX43. The shots were made with an Olympus DP72 camera and Cell ^ D software.
Paraffin sections were stained with Masson's trichrome stain, Goldner variant. Microscopic examination was carried out to assess the general morphology of the dermal and epidermal structures.
Particular attention was paid to the morphology of the Stratum Corneum.

Compound	exfoliation of the upper layers of the stratum corneum (morphology) (0.25% (C3), day 4)	exfoliation of the upper layers of the stratum corneum (morphology) (0.5% (C2), day 4)	Exfoliating activity, Result (0.5% (C2))	exfoliation of the upper layers of the stratum corneum (morphology) (1% (C1), day 4)	Exfoliating activity, Result (1% (C1))	number of cell layers of the SC (0.5% (C2), day 4)	number of cell layers of the SC (1% (C1), day 4)	exfoliating activity, comparison of products (especially samples of 1% concentration, day 4)
O=C(O)CO [Product P4, glycolic acid]	appeared normal; also recorded: no appreciable exfoliating activity	very light and irregular exfoliation of the upper layers	3	light and irregular exfoliation of the upper layers; also recorded: slight irregular exfoliation	4			
O=C(O)C(Cl)(Cl)Cl [Product P6, trichloroacetic acid]	appeared normal; also recorded: no significant activity in the exfoliation	light and irregular exfoliation of the upper layers; also recorded: uneven exfoliation	4	moderate exfoliation of the upper layers	6	slightly reduced	moderately reduced	best exfoliating activity
O=C(O)c1ccccc1O [Product P1, Natural Salicylic Acid]	appeared normal; also recorded: does not present a significant exfoliating activity	appeared normal; also recorded: does not present a significant exfoliating activity		light exfoliation of the upper layers	4		slightly reduced	
CC(O)C(=O)O (stereo not drawn) [Product P3, Lactic acid]	appeared normal; also recorded: no appreciable exfoliating activity	very light exfoliation of the upper layers	2	light exfoliation of the upper layers	4		slightly reduced	
